# Data: ChEMBL document CHEMBL3526087, “Inhibition of human sterol Δ7-reductase and other postlanosterol enzymes by LK-980, a novel inhibitor of cholesterol synthesis” (Drug Metab Dispos, 2011)
# Experiments:
# [1] = molecular target: T1, 3-hydroxy-3-methylglutaryl-coenzyme A reductase (Homo sapiens) (UniProt P04035); test: Inhibition of HMGCR activity in human hepatocytes assessed as increase in lathosterol level per gram of protein by GC-MS analysis (reference value: 47.7 ug); assay type: cell-based; details: Hepatocyte
# T1 sequence (whole entry): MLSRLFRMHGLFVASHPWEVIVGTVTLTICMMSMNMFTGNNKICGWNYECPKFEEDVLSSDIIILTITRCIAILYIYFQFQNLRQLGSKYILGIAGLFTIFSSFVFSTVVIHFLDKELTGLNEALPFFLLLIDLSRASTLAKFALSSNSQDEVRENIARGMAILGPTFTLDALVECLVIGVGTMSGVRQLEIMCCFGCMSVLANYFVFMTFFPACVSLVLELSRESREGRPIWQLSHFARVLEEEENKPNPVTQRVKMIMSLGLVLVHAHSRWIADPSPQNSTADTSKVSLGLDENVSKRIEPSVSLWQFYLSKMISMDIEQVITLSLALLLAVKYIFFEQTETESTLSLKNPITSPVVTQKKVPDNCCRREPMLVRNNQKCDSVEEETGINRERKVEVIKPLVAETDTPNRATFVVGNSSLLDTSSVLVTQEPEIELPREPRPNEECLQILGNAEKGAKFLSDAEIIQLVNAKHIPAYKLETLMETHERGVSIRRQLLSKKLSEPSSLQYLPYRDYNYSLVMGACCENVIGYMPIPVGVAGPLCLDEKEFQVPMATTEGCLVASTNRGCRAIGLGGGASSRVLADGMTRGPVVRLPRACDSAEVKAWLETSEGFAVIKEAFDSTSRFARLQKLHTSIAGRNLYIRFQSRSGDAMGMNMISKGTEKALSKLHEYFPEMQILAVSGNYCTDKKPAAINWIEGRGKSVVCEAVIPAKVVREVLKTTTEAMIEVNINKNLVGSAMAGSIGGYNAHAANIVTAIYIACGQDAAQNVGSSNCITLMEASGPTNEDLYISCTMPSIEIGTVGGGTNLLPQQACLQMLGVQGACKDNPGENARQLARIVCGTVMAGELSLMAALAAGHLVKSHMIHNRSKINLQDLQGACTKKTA
# [2] = molecular target: T1, 3-hydroxy-3-methylglutaryl-coenzyme A reductase (Homo sapiens); test: Inhibition of HMGCR activity in human hepatocytes assessed as increase in FF-MAS level per gram of protein by GC-MS analysis (reference value: 0.7 ug); assay type: cell-based; details: Hepatocyte
# [3] = molecular target: T1, 3-hydroxy-3-methylglutaryl-coenzyme A reductase (Homo sapiens); test: Inhibition of HMGCR activity in human hepatocytes assessed as increase in desmosterol level per gram of protein by GC-MS analysis (reference value: 5.5 ug); assay type: cell-based; details: Hepatocyte
# [4] = molecular target: T1, 3-hydroxy-3-methylglutaryl-coenzyme A reductase (Homo sapiens); test: Inhibition of HMGCR activity in human hepatocytes assessed as increase in 7-dehydrocholesterol level per gram of protein by GC-MS analysis (reference value: 16.3 ug); assay type: cell-based; details: Hepatocyte
# [5] = molecular target: Cytochrome P450 3A4 (Homo sapiens, UniProt P08684); test: Effect on CYP3A4 in human hepatocytes assessed as nifedipine oxidation activity using nifedipine as substrate at 10 uM; assay type: ADME, cell-based, Hepatocyte
# Chain of Cytochrome P450 3A4 (P08684 whole entry): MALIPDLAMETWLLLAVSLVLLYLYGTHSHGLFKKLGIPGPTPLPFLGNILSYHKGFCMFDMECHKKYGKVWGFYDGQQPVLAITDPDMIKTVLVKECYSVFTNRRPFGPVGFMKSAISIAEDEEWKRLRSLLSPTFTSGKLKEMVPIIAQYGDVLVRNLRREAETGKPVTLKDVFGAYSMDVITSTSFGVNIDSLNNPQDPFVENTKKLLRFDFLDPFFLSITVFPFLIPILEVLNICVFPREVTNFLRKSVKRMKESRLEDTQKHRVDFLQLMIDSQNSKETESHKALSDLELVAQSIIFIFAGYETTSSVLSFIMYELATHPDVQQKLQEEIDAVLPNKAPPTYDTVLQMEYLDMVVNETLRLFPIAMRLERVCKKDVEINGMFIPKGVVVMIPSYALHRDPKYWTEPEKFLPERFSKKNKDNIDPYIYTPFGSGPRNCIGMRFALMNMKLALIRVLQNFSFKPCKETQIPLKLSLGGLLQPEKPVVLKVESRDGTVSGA
# [6] = molecular target: T2, Delta(24)-sterol reductase (Homo sapiens) (UniProt Q15392); test: Inhibition of DHCR24 activity in human hepatocytes assessed as increase in desmosterol level per gram of protein by GC-MS analysis (reference value: 5.5 ug); assay type: cell-based; details: Hepatocyte
# T2 sequence (whole entry): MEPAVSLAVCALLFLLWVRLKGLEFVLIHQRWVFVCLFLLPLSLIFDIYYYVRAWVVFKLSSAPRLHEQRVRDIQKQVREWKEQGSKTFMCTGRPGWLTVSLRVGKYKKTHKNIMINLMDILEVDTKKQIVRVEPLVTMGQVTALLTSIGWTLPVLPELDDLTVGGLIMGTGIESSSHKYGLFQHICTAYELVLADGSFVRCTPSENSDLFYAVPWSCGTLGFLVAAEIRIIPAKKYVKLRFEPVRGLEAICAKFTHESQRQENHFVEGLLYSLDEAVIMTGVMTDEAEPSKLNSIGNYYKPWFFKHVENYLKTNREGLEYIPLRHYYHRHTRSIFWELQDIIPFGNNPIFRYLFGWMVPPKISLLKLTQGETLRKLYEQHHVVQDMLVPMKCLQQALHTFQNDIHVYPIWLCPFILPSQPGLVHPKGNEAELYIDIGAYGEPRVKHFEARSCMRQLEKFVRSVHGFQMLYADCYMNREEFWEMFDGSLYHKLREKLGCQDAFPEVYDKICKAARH
# [7] = molecular target: T3, 7-dehydrocholesterol reductase (Homo sapiens) (UniProt Q9UBM7); test: Inhibition of DHCR7 activity in human hepatocytes assessed as increase in 7-dehydrocholesterol level per gram of protein by GC-MS analysis (reference value: 16.3 ug); assay type: cell-based; details: Hepatocyte
# T3 sequence (whole entry): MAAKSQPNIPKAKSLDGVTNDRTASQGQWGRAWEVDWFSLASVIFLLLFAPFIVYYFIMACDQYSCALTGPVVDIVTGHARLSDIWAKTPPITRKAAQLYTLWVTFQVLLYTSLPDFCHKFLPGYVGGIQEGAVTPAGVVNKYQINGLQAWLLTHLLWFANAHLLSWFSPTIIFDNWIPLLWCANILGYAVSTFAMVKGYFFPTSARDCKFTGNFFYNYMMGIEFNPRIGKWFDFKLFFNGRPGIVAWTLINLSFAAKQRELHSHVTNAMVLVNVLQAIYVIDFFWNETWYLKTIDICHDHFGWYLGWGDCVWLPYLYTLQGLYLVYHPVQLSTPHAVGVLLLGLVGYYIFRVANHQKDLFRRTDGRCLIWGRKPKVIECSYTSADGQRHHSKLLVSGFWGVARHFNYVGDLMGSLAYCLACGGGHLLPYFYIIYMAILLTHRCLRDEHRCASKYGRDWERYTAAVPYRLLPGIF
# [8] = molecular target: T4, Delta(14)-sterol reductase TM7SF2 (Homo sapiens) (UniProt O76062); test: Inhibition of DHCR14 activity in human hepatocytes assessed as increase in FF-MAS level per gram of protein by GC-MS analysis (reference value: 0.7 ug); assay type: cell-based; details: Hepatocyte
# T4 sequence (whole entry): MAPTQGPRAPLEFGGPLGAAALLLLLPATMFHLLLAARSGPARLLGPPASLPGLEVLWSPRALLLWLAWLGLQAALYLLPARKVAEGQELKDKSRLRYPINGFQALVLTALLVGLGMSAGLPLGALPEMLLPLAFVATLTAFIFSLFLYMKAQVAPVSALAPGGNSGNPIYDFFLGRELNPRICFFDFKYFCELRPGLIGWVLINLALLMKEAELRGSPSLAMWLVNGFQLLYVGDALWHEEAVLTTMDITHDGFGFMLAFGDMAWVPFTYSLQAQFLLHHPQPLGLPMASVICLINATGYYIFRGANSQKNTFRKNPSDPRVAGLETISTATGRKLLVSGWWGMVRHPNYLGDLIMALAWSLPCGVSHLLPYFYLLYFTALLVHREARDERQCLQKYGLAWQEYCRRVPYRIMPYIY
# [9] = system: Hepatocyte; test: Effect on CYP3A4 mRNA expression in human hepatocytes at 10 uM after 12 to 48 hrs by RT-PCR analysis; assay type: ADME, cell-based
# [10] = molecular target: T5, Lathosterol oxidase (Homo sapiens) (UniProt O75845); test: Inhibition of SC5DL activity in human hepatocytes assessed as increase in lathosterol level per gram of protein by GC-MS analysis (reference value: 47.7 ug); assay type: cell-based; details: Hepatocyte
# T5 sequence (whole entry): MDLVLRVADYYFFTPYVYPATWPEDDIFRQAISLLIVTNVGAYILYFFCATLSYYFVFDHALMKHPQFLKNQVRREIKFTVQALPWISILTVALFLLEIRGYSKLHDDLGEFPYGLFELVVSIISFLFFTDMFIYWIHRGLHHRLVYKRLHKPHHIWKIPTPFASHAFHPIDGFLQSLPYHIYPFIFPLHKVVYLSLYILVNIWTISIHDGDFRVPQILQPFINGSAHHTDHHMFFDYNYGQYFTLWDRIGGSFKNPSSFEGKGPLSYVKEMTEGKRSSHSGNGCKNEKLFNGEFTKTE
# [11] = molecular target: T1, 3-hydroxy-3-methylglutaryl-coenzyme A reductase (Homo sapiens); test: Inhibition of HMGCR activity in human hepatocytes assessed as mevalonate formed per mg of protein at 100 uM by GC-MS analysis (reference value: 69 9 pmol/min); assay type: cell-based; details: Hepatocyte
Activity [1],Activity [2],Activity [3],Activity [4],Activity [6],Activity [7],Activity [8],Activity [10],Activity [11],Compound,Activity [5],Activity [9]
25.8 µg,0.3 µg,2.7 µg,15.8 µg,,,,,,CC(C)c1c(C(=O)Nc2ccccc2)c(-c2ccccc2)c(-c2ccc(F)cc2)n1CC[C@@H](O)C[C@@H](O)CC(=O)O,,
,,,,10.1 µg,556 µg,2.9 µg,119 µg,76 pmol/min,OC(CN1CCN(CCc2ccccc2)CC1)c1cccnc1 (stereo unspecified),Non-toxic,Non-toxic
